Test results taken from patent publication US20230045112A1, “DISULFIRAM AND OTHER REDOX-RELATED COMPOSITIONS FOR BRAIN TUMORS” (Texas Tech University System, priority 2014, published 2023).

Tests used:
[1] = system: cell lines; assay: Cytotoxicity of NO-aspirin for cell lines; type: cell-based
[2] = molecular target: T1, MGMT (Homo sapiens, UniProt P16455); assay: MGMT activity and protein in MGMT-proficient human cancer cell lines (HT29, T47D, HCT116); type: cell-based; parameters: endogenous in cells; host or cells: HT29, T47D, HCT116
T1 sequence (P16455 1-207): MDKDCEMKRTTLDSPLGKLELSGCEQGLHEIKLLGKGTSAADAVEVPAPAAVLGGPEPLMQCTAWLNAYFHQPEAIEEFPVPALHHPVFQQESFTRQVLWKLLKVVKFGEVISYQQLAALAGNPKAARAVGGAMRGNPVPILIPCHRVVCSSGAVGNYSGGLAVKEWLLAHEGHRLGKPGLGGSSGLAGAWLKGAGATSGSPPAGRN

[3] = molecular target: T1, MGMT; assay: MGMT activity and protein (western blot) in drug-treated T98G and UW228 brain tumor cells; type: cell-based; parameters: endogenous in cells; host or cells: UW228, T98G; settings: UW228 cells
Protocol: The DNA repair activity of MGMT was measured by the transfer of [3H]-labeled methyl groups from the O^6-position of guanine in the DNA substrate to the MGMT protein as described previously. The DNA substrate enriched in O6-methylguanine was prepared by reacting [3H]-methylnitrosourea (GE Healthcare, 60 Ci/mmol). Briefly, the cell pellets were washed with cold PBS, disrupted by sonication in the assay buffer (30 mM Tris-HCl pH 7.5, 0.5 mM DTT, 0.5 mM EDTA, 5% glycerol, and 20 μM spermidine) and centrifuged. The extracts (50-150 μg protein) were supplemented with the [3H]-DNA (10,000 cpm) and incubated at 37° C. The reactions were terminated by the addition of TCA, the DNA substrate was hydrolyzed at 80° C., and following filtration on glass fiber discs; the radioactivity present in protein precipitates was quantitated.
After trypsinization, the cell pellets were washed with cold PBS, and subjected to sonication in 50 mM Tris-HCl (pH 8.0) containing 1% glycerol, 1 mM EDTA, 0.5 mM PMSF and 2 mM benzamidine and centrifuged. Equal protein amounts from different treatments were electrophoresed on 12% SDS-polyacrylamide gels. Proteins were electro-transferred to Immobilon-P membranes. The membranes were blocked with 5% non-fat dry milk in Trisbuffered saline (TBS; pH 8.0) containing 0.1% Tween 20 for 3 hours, and subsequently incubated with appropriate primary antibodies. Antigen-antibody complexes were visualized by enhanced chemiluminiscence (Pierce Company). Band intensities were quantified using a Bio-Rad Versa Doc Imaging system.
Cells were trypsinized, washed and MGMT activity was determined in cell extracts (top panel). The same extracts were western blotted for MGMT protein. WB, western blot. […] Cells were exposed to CuDSF and analyzed for MGMT activity and protein as above. […] To delineate the appropriate time for alkylating drug treatments following MGMT inhibition, next, the time course of MGMT depletion by these three interventions was studied.
At times indicated, MGMT activity and protein levels were assessed.
MGMT performs a stoichiometric reaction to accomplish the DNA repair and is not recycled to its active form. Instead, the inactivated protein is degraded and fresh translation has to occur to restore the MGMT levels in cells. The rate and extent of this recovery is an important factor in the extent of damage introduced to the normal cell genomes such as the bone marrow stem cells. […] MGMT protein and activity levels were analyzed during the depletion and repletion (FIG. 3B).

[4] = molecular target: T1, MGMT; parameters: endogenous in cells; host or cells: DAOY; settings: cultured tumor cells; cited from earlier work

Row | Compound | IC50 [1] [µM] | MGMT protein degraded ([2]; 5 μM for 2 hours) | inhibition of MGMT activity ([2]; HT29, T47D, HCT116, 5-10 μM, within 1 hour of exposure) [%] | MGMT protein regenerated ([2]; HT29 cells, 24 hours post-incubation in drug-free medium) | loss/inhibition of MGMT activity at 12 hours post-drug treatment ([3]; 50 μM, 12 hours) [%] | recovery of MGMT activity, % of control levels ([3]; 48 hours post-drug in drug-free media after 50 μM for 12 hours) | duration of suppression of DNA repair [4] [h]
1 | CC(=O)Oc1ccccc1C(=O)Oc1cccc(CO[N+](=O)[O-])c1 [NCX-4016, 2-(acetyloxy) benzoic acid 3-[(nitrooxy)methyl]phenyl ester] | > 500 | 80-90% | 90 | More than 60% |  |  | 
2 | Nc1nc(OCc2ccccc2)c2nc[nH]c2n1 [BG, O^6-benzylguanine] |  |  |  |  | 100 | 25 % of control levels | 48 to 72
